Measured values reported in patent US6177592A, “Compounds” (priority 1997, dated 2001).
Entries after “also recorded” stand apart in the source; their conditions may differ.

Columns and labels:
[1] = test system: HL-60 cells; experiment: Apoptosis in HL-60 cells (apoptic bodies, DNA fragmentation); type: cell-based, human; conditions: for apoptic bodies in the cells: at each of the cell-growth-inhibiting concentrations
Experimental: (§1) (1) Each 0.5 ml of 0.2 mM CM, 0.8 mM CM or 1.6 mM CM was added to 4.5 ml of RPMI 1640 medium containing 10% of fetal calf serum and 2.5×10^5HL-60 cells (promyelocytic leukemia cell) (ATCC CCL-240) and incubated at 37° C. for 24 hours or 48 hours in the presence of 5% carbon dioxide gas and the numbers of viable cells were measured.
(2) To each of the wells of a 96-well microtiter plate was added 8, 40, 200 or 1000 μM aqueous solution of GM or 10 μl of water as a control. HL-60 (ATCC CCL-240) was suspended in an RPMI 1640 medium containing 10% of fetal calf serum to make the concentration 5×10^4 cells/ml and each 90 μl thereof was placed in each well of the above-mentioned microtiter plate and incubated at 37° C. for 48 hours in the presence of 5% carbon dioxide. Incubation was conducted for four hours more after addition of 10 μl of a solution (5 mg/ml) of 3-(4,5-dimethylthiazol-2-yl)-2,5-diphenyltetrzolium bromide (MTT; manufactured by Sigma) in a phosphate-buffered saline solution and the state of growth of the cells was observed under a microscope. Further, 100 μl of 2-propanol containing 0.04N hydrochloric acid was added followed by stirring and an absorbance at 590 nm was measured.
(§2) (4) HL-60 cells (ATCC CCL240) which were incubated at 37° C. in an RPMI 1640 medium (manufactured by Nissui) containing 10% of fetal calf serum (manufactured by Gibco) treated at 56° C. for 30 minutes were suspended in the above medium to make the concentration 2.5×10^5cells/4.5 ml. To this suspension was added 0.5 ml of 100 μM aqueous solution of GM (final concentration: 10 μM) followed by incubating at 37° C. in the presence of 5% carbon dioxide gas for 24 hours, 48 hours and 72 hours.
(5) To each well of the 96-well microtiter plate was added 4.12, 12.3, 37.0, 111, 333 or 1000 μM aqueous solution of GD or 10 μl of water as a control. HL-60 (ATCC CCL-240) was suspended in an RPMI 1640 medium containing 10% of fetal calf serum to make the concentration 5×10^4 cells/ml and each 90 μl thereof was placed in each well of the above-mentioned microtiter plate followed by incubating at 37° C. for 48 hours in the presence of 5% carbon dioxide gas. The incubation was conducted for four hours more after addition of 10 μl of 5 mg/ml solution of 3-(4,5-dimethylthiazol-2-yl)-2,5-diphenyltetrazolium bromide (MTT; manufactured by Sigma) in a phosphate-buffered saline solution and the state of growth of the cells was observed under a microscope. In the meanwhile, 100 μl of 2-propanol containing 0.04N HCl was added followed by well stirring and the absorbance at 590 nm was measured.

[2] = test system: HL-60 cells (promyelocytic leukemia cell); experiment: Viable cell numbers of HL-60 (growth inhibition of cancer cells); type: cell-based, human
Experimental: as §1
In FIG. 28, open square (.quadrature.) indicates the case where CM is added followed by culturing for 24 hours; black square (.box-solid.) indicates the case where CM is added followed by culturing for 48 hours; open triangle (Δ) indicates the case where no sample was added followed by culturing for 24 hours; and black triangle (.tangle-solidup.) indicates the case where no sample was added followed by culturing for 48 hours.
as §2, with “hours. […]” for “hours.”

[3] = test system: Sarcoma-180; experiment: Sarcoma-180/ICR mice macrobiotic effect; type: in vivo
[4] = test system: Bacillus subtilis IFO 3021; experiment: Antibacterial activity, viable cell numbers; type: cell-based
Experimental: Bacillus subtilis IFO 3021 was incubated (by mans of a seed culture) overnight in a sensitive bouillon medium (manufactured by Nissui). Absorbance at 600 nm was measured and viable cell numbers were calculated from the previously-prepared calibration curve showing the relation between the viable cell numbers and absorbance at 600 nm. The seed-cultured liquid was diluted with a fresh sensitive bouillon medium to make the concentration 1×10^6 cells/ml and each 180 μl thereof was placed in each well of the 96-well microtiter plate. Each 20 μl of aqueous solution of GM (4 mg/ml or 2 mg/ml) or water was added to each well followed by allowing to a stationary culture at 37° C. for one night (main incubation) In the meanwhile, a part of the seed culture liquid was diluted with sterilized water, spread onto a sensitive bouillon agar plate medium and incubated at 37° C. for one night and the colonies were counted to measure the precise viable cell numbers.
The cultured liquid in each of the wells was diluted with sterilized water, spread onto a sensitive bouillon agar plate medium and incubated at 37° C. for one night and the colonies were counter to measure the viable cell numbers.

[5] = test system: IMC; experiment: IMC/CDF1 mice macrobiotic effect; type: in vivo
[6] = test system: mouse leukemia P-388; experiment: Mouse leukemia P-388 survival (macrobiotic effect) in DBA/2 mice; type: in vivo; conditions: 10 mg/kg/day i.p., five days
Experimental: GM was diluted with a physiological saline solution to a predetermined concentration and subjected to the following tests.
(2) Mouse leukemia P-388 (1.1×10^6 cells/mouse) was intraperitoneally injected to female DBA/2 mice (body weight: about 20 g) of seven weeks age. After that, GM, CM, GD or CD (10 mg/kg/day) was intraperitoneally injected for consecutive five clays. In the meanwhile, a physiological saline solution was intraperitoneally injected to the control group by the same manner. In the two group each consisting of eight mice, survived numbers, average survived days and macrobiotic rate of the mice were calculated.

| Structure (SMILES) | apoptic bodies in the cells [1] | inhibition activity of the growth of cancer cells ([2]; 0.5 ml of 0.2, 0.8 or 1.6 mM CM added to 4.5 ml, 24 or 48 hours) | macrobiotic effect [3] | antibacterial activity (in words) ([4]; compared with GM) | macrobiotic effect [5] | macrobiotic effect (average survived days) [6] | fragmentation of DNA into a chromatin unit ([1]; 10 μM GM, agarose gel electrophoresis) | viable cell numbers and viability of cells ([2]; 10 μM GM, 24, 48 and 72 hours, vs water control) | viable cell numbers ([4]; 400 μg/ml final, one night at 37° C., water 1.3×10^8) |
| --- | --- | --- | --- | --- | --- | --- | --- | --- | --- |
| N[C@@H](CSC1C=C(O)C(=O)C1)C(=O)O (stereo partly shown) [CM] | apoptic bodies were detected | intensive inhibition activity of the growth of cancer cells | same macrobiotic effect | same results | same macrobiotic effect | significant macrobiotic effect | – | – | – |
| N[C@@H](CCC(=O)N[C@@H](CSC1C=C(O)C(=O)C1)C(=O)NCC(=O)O)C(=O)O (stereo partly shown) [GM, 2-hydroxy-4-glutathion-S-yl-2-cyclopenten-1-one] | apoptic bodies were formed in the cells; also recorded: aggregation of nuclei, reduction in size of the cells and production of apoptic bodies were detected | – | same macrobiotic effect | – | same macrobiotic effect | significant macrobiotic effect | fragmentation of DNA into a chromatin unit was observed | significantly reduced | 4.4×10^7 cells/ml |
